Assay results reported in ChEMBL document CHEMBL3817829, “Spirooxindoles as novel 3D-fragment scaffolds: Synthesis and screening against CYP121 from M. tuberculosis” (Bioorg Med Chem Lett, 2016).

Assays:
[1] = Solubility of compound in 50 mM Tris-Hcl/1mM EDTA at 1 mM at pH 7.5; format: physicochemical; settings: buffer, pH 7.5, 1000 µM
[2] = biological target: T1, Mycocyclosin synthase (Mycobacterium tuberculosis, UniProt P9WPP7); experiment: Binding affinity to Mycobacterium tuberculosis recombinant His6-tagged CYP121 expressed in Escherichia coli C41(DE3) cells assessed as change in wavelength of heme soret band at 1 mM by UV-visible spectrophotometric method; settings: 1000 µM
T1 sequence (P9WPP7 whole entry): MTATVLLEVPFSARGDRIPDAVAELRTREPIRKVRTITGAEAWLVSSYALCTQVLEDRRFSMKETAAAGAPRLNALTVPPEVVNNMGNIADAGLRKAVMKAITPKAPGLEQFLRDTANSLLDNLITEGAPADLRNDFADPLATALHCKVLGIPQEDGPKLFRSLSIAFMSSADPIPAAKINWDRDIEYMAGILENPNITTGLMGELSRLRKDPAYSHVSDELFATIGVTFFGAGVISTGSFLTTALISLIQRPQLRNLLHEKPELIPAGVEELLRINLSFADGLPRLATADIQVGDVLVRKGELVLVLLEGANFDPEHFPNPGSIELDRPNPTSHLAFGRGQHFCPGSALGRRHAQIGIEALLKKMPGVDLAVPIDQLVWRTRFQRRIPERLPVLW

[3] = biological target: T1, Mycocyclosin synthase; experiment: Binding affinity to Mycobacterium tuberculosis recombinant His6-tagged CYP121 expressed in Escherichia coli C41(DE3) cells by isothermal titration calorimetry

SMILES	solubility [1]	Activity [2]	Kd [3] [µM]
CCOC(=O)/C=C1/C(=O)Nc2ccccc21	soluble	0 nm	
CCOC(=O)/C=C1/C(=O)Nc2ccc(F)cc21	soluble	0 nm	
CCOC(=O)/C=C1/C(=O)Nc2ccc(Cl)cc21	Insoluble	ND(Insoluble)	
CCOC(=O)[C@@H]1[C@@H]2C=C[C@@H](C2)[C@@]12C(=O)Sc1ccccc12	soluble	0 nm	
N#CCC1C(=O)Nc2ccccc21 (configuration not stated)	soluble	0 nm	
CN1C(=O)C(CC#N)c2ccccc21 (configuration not stated)	soluble	0 nm	
CCOC(=O)[C@H]1[C@@H]2C=C[C@@H](C2)[C@]12C(=O)N(C(C)=O)c1ccccc12	soluble	0 nm	
N#C/C=C1/C(=O)Nc2ccc(OC(F)(F)F)cc21	soluble	0 nm	
CCOC(=O)CC1C(=O)Nc2ccc(OC(F)(F)F)cc21 (configuration not stated)	soluble	0 nm	
CCOC(=O)[C@H]1[C@@H]2C=C[C@@H](C2)[C@]12C(=O)Sc1ccccc12	soluble	-1 nm	
CCOC(=O)[C@H]1[C@@H]2C=C[C@@H](C2)[C@]12C(=O)Nc1ccc(OC(F)(F)F)cc12	soluble	0 nm	
N#C/C=C1/C(=O)Nc2ccccc21	soluble	0 nm	
CCOC(=O)[C@@H]1[C@@H]2C=C[C@@H](C2)[C@@]12C(=O)Oc1ccccc12	soluble	0 nm	
CCOC(=O)[C@@H]1[C@@H]2C=C[C@@H](C2)[C@@]12C(=O)Nc1ccc(OC(F)(F)F)cc12	soluble	0 nm	
Nc1ccc2nccc(-n3cncn3)c2c1		3 nm	28
N#CCC1C(=O)Nc2ccc(OC(F)(F)F)cc21 (configuration not stated)	soluble	-2 nm	
CCOC(=O)[C@@H]1[C@@H]2C=C[C@@H](C2)[C@@]12C(=O)N(C)c1ccccc12	soluble	0 nm	
CCOC(=O)/C=C1/C(=O)Sc2ccccc21	soluble	0 nm	
CCOC(=O)CC1C(=O)Oc2ccccc21 (configuration not stated)	soluble	0 nm	
CCOC(=O)[C@@H]1[C@@H]2C=C[C@@H](C2)[C@@]12C(=O)Nc1ccc(F)cc12	soluble	0 nm	
CCOC(=O)/C=C1/C(=O)N(C)c2ccccc21	soluble	0 nm	

SMILES	solubility [1]	Activity [2]	Kd [3] [µM]
N#C[C@@H]1[C@@H]2C=C[C@@H](C2)[C@@]12C(=O)Nc1ccccc12	soluble	0 nm	
CCOC(=O)[C@H]1[C@@H]2C=C[C@@H](C2)[C@]12C(=O)Nc1ccc(Cl)cc12	soluble	-1 nm	
CCOC(=O)/C=C1/C(=O)Nc2ccc([N+](=O)[O-])cc21	Insoluble	ND(Insoluble)	
CCOC(=O)[C@H]1[C@@H]2C=C[C@@H](C2)[C@]12C(=O)Nc1ccccc12	soluble	0 nm	
CCOC(=O)[C@H]1[C@@H]2C=C[C@@H](C2)[C@]12C(=O)N(C)c1ccccc12	soluble	-2 nm	
CCOC(=O)/C=C1/C(=O)Oc2ccccc21	soluble	-1 nm	
CCOC(=O)[C@@H]1[C@@H]2C=C[C@@H](C2)[C@@]12C(=O)N(C(C)=O)c1ccccc12	soluble	0 nm	
CCOC(=O)[C@@H]1[C@@H]2C=C[C@@H](C2)[C@@]12C(=O)Nc1ccc(Cl)cc12	soluble	0 nm	
CCOC(=O)/C=C1/C(=O)Nc2ccc(OC(F)(F)F)cc21	soluble	0 nm	
CCOC(=O)[C@H]1[C@@H]2C=C[C@@H](C2)[C@]12C(=O)Nc1ccc(F)cc12	soluble	0 nm	
CN1C(=O)/C(=C/C#N)c2ccccc21	soluble	0 nm	
N#C[C@H]1[C@@H]2C=C[C@@H](C2)[C@]12C(=O)Nc1ccccc12	soluble	0 nm	
CCOC(=O)CC1C(=O)Nc2ccc(F)cc21 (configuration not stated)	soluble	0 nm	
CCOC(=O)[C@H]1[C@@H]2C=C[C@@H](C2)[C@]12C(=O)Oc1ccccc12	soluble	-1 nm	
CCOC(=O)CC1C(=O)Nc2ccc(Cl)cc21 (configuration not stated)	soluble	0 nm	
CCOC(=O)/C=C1/C(=O)N(C(C)=O)c2ccccc21	soluble	0 nm	
CCOC(=O)[C@@H]1[C@@H]2C=C[C@@H](C2)[C@@]12C(=O)Nc1ccccc12	soluble	-1 nm	
N#CC1[C@@H]2C=C[C@@H](C2)C12C(=O)Nc1ccccc12 (mixture of isomers)	soluble	0 nm	
N#CC1[C@@H]2C=C[C@@H](C2)C12C(=O)Nc1ccc(OC(F)(F)F)cc12 (mixture of isomers)	soluble	0 nm	
CCOC(=O)C1[C@@H]2C=C[C@@H](C2)C12C(=O)Nc1ccc([N+](=O)[O-])cc12 (mixture of isomers)	Insoluble	ND(Insoluble)	
